Laboratory results as given in patent publication EP4578449A1, “PHARMACEUTICAL COMBINATION OF FAK INHIBITOR AND MICROTUBULE INHIBITOR AND USE THEREOF” (Inxmed (Nanjing) Co., Ltd., priority 2022, dated 2024).

Assays:
colon cancer CT26 cells = assay: IN10018 and Docetaxel: microscopy and CRT/Annexin-V/PI flow cytometry; type: cell-based, mouse; conditions: 48 hours, IN10018 5 µM, Docetaxel 0.1 µM, alone or combined
Method: CT26 cells (Institute of Cell Biology, Chinese Academy of Sciences) were cultured with RPMI-1640 (Shanghai Basalmedia, catalog number: L210KJ, batch number: F210916) + 10% FBS (Gibco, catalog number: 10099-141c, batch number: 2158737cp), and passaged twice. When the cells were in good condition, they were placed in a 24-well plate. After 24 hours of cell spreading, four groups were set up. The first group was the control group, in which culture medium was added; the second group was IN10018 at a concentration of 5µM; the third group was Docetaxel (MCE, classification number: HY-B0011, batch number: 111613) with a concentration of 0.1µM; and the fourth group was the combination group of IN10018 (5 µM) and Docetaxel (0.1µM). The drugs were mixed and cultured in a 5 % CO2 incubator at 37°C for 48 hours.
After 48 hours of drug action, the cells were observed and photographed under a microscope. The photos were saved. Then the cells were collected for flow cytometry, and the cells were washed twice with flow buffer (PBS + 2% FBS). 0.5 µl of AF647 anti-calreticulin antibody (abcam, catalog number: ab196159, batch number: CR33676773) was added to each well, and fully mixed. The cells were incubated at 4 °C for 20 minutes in the dark. […] The mixture was incubated at room temperature in the dark for 15 minutes, and then analyzed on a flow cytometer.

[1] = tested on: mouse breast cancer 4T1 cells; assay: Eribulin and IN10018: microscopy and CRT/Annexin-V/PI and GRP94 flow cytometry; type: cell-based; conditions: 48 hours, IN10018 5 µM, Eribulin 0.15 µM or 0.45 µM, alone or combined
Method: 4T1 cells were cultured in monolayer in vitro under the following conditions: RPMI-1640 medium with 10% fetal bovine serum, 37 °C, 5% CO2. Trypsin was used for routine digestion and passage treatment two to three times a week. When the cells were in the exponential growth phase and the adherent confluence reached 80%-90%, the cells were harvested and plated.
4T1 cells were digested with trypsin and then collected and counted. Based on the counting results, the cells were diluted with RPMI-1640+10% FBS to a concentration of 50,000 cells per milliliter. Then the cells were plated in 12-well cell culture plates, with 2 ml of cell suspension per well, i.e., 100,000 cells. After plating, the cells were cultured in a 37°C and 5% CO2 incubator.
(§1) After 24 hours of plating, test compounds IN10018 and Eribulin were added to different wells, respectively.
(§2) After 48 hours of drug action, the cells were photographed using a microscope, and then trypsinized and collected for flow cytometry staining.
The cells were washed twice with flow buffer (DPBS + 2% FBS), and each group of cells was divided into two equal parts. In one part, 0.5 µL of AF647 Anti-Calreticulin Antibody was added to each well, and mixed. The cells were incubated at 4°C in the dark for 20 min. […]
(§3) After the assay, the cell positive rate was analyzed by Flowjo (V10) software.

[2] = tested on: human ovarian epithelial carcinoma TOV-21G cells; assay: Eribulin and IN10018: microscopy and CRT/Annexin-V/PI flow cytometry; type: cell-based; conditions: 48 hours, IN10018 10 µM, Eribulin 0.045 µM, alone or combined
Method: (§4) ID8 cells and TOV-21G cells were cultured in monolayer in vitro. ID8 cells were cultured in DMEM medium with 10% fetal bovine serum. TOV-21G cells were cultured in RPMI-1640 medium with 10% fetal bovine serum. Both were cultured in a 37 °C, 5% CO2 incubator. Trypsin was used for routine digestion and passage treatment two to three times a week. When the cells were in the exponential growth phase and the adherent confluence reached 80%-90%, the cells were harvested and plated.
(§5) ID8 cells and TOV-21G cells were digested with trypsin and then collected and counted. Based on the counting results, the cells were diluted with the corresponding complete culture medium to a concentration of 50,000 cells per milliliter. Then the cells were plated in 12-well cell culture plates, with 2 ml of cell suspension per well, i.e., 100,000 cells.
(§6) After plating, the cells were cultured in a 37°C and 5% CO2 incubator.
as §1, §2
(§7) The cells were washed twice with flow buffer (DPBS + 2% FBS). 0.5 µL of AF647 Anti-Calreticulin Antibody was added to each well, and mixed. The cells were incubated at 4°C in the dark for 20 min. After washing once with flow buffer, 195 µL of Annexin-V-FITC binding solution was added, and the cells were gently mixed well. 5 µL of Annexin-V-FITC antibody was added. After further mixing, 10 µL of PI dye was added and mixed well. The cells were incubated at room temperature in the dark for 15 min. The cells were then subjected to flow cytometry.
as §3

[3] = tested on: mouse ovarian epithelial carcinoma ID8 cells; assay: as above; type: cell-based; conditions: 48 hours, IN10018 10 µM, Eribulin 0.045 µM, alone or combined
Method: as §4, §5, §6, §1, §2, §7, §3

breast cancer 4T1 cells = assay: Subcutaneous allograft tumor model of breast cancer 4T1 cells in BALB/c mice; type: in vivo
Description: Mice: Female BALB/c mice aged 6-8 weeks were purchased from SHANGHAI SLAC LABORATORY ANIMAL CO. LTD. The assay began after the animals were adapted to the assay environment upon arrival. The animals were kept in IVC (independent ventilation system) cages (5 per cage) in an SPF animal room. All cages, padding and drinking water must be sterilized before use. All assay personnel should wear protective clothing and latex gloves when operating in the animal room. Cages, feed and drinking water were replaced twice a week. The feeding environment and lighting conditions were as follows: • Temperature: 20-26 °C • Humidity: 40-70% • Lighting period: 12 hours light, 12 hours no light • Cages: Made of polycarbonate, 300 mm × 180 mm × 150 mm. The padding was corn cobs, which was replaced twice a week. • Food: The assay animals had free access to food (dry pelleted food sterilized by irradiation) throughout the assay period. • Drinking water: Assay animals were free to drink sterile water. • Cage identification: The animal information card for each cage should indicate the number of animals in the cage, gender, strain, receipt date, dosing regimen, assay number, group and start date of the assay. • Animal identification: Assay animals were identified with ear tags.
Breast cancer cell 4T1 (source: Nanjing Cobioer Biotechnology Co., Ltd., catalog number: CBP60352) was maintained and passaged by INXMED (Nanjing) Co., Ltd. The cells were cultured in a monolayer in vitro in RPMI-1640 medium with 10% fetal bovine serum in a 37 °C, 5% CO2 incubator. Trypsin-EDTA was used for routine digestion and passage treatment two to three times a week. When the cells were in the exponential growth phase and the adherent confluence reached 80%-90%, the cells were harvested and plated.
0.1 mL of cell suspension containing 2 x 10^5 cells was subcutaneously inoculated on the right back of each mouse. When the tumor volume reached ~52 mm^3 (10th day after cell inoculation), the mice were randomly divided into groups for drug administration according to the tumor volume. Table 9. Dosing regimen of the test substance in 4T1 mouse transplant tumor model
The formulation and any modifications of this assay protocol had been assessed and approved by the IACUC of ArrayBridge. The use and welfare of assay animals were carried out in accordance with AAALAC regulations. The health status and mortality of animals were monitored daily, with routine checks including observation of tumor growth and the impact of drug treatment on the animals' daily behavior, such as activity, food and water intake (estimated by visual inspection), changes in body weight, physical signs, or any other abnormalities. The number of animal deaths and side effects in each group were recorded based on the number of animals in each group.
If the animal's health condition continued to deteriorate, or if the tumor volume exceeded 3,000 mm^3, or there was a serious disease or pain, euthanasia should be carried out. In the following cases, the veterinarian was notified and euthanasia was performed: obvious weight loss, i.e., weight loss greater than 20%; inability to freely eat and drink; the average tumor volume of the control group reached 2000 mm^3, the assay was terminated.
Tumor diameters were measured three times a week using calipers. The tumor volume was calculated using the formula: V = 0.5 × a × b^2, where a and b represent the long and short diameters of the tumor, respectively.
Based on the tumor volume on the first day after grouping, the tumor growth inhibition rate TGI (%) was calculated according to the following formula: TGI (%) = [1 - (average tumor volume of a treatment group - average tumor volume of the treatment group at the beginning of treatment) / (average tumor volume of the solvent control group - average tumor volume of the solvent control group at the beginning of treatment)] × 100%. […]

[4] = tested on: mouse colon cancer CT26 cells; assay: Docetaxel/Eribulin/Paclitaxel and Defactinib: microscopy and CRT/Annexin-V/PI flow cytometry; type: cell-based; conditions: 48 hours, Defactinib 5 µM, Docetaxel 0.3 µM, Eribulin 0.3 µM, Paclitaxel 6 µM, alone or combined with Defactinib
Method: CT26 cells were cultured in monolayer in vitro under the following conditions: RPMI-1640 medium with 10% fetal bovine serum, 37°C, 5% CO2. Trypsin was used for routine digestion and passage treatment two to three times a week. When the cells were in the exponential growth phase and the adherent confluence reached 80%-90%, the cells were harvested and plated.
CT26 cells were digested with trypsin, and then the cells were collected and counted. Based on the counting results, the cells were diluted with the corresponding complete culture medium to a concentration of 50,000 cells per milliliter. Then the cells were plated in 12-well cell culture plates, with 2 ml of cell suspension per well, i.e., 100,000 cells.
as §6
After 24 hours of plating, the test compounds Docetaxel, Eribulin, Paclitaxel and Defactinib were added to different wells, respectively.
as §2
The cells were washed twice with flow buffer (DPBS + 2% FBS). 0.5 µL of AF647 Anti-Calreticulin Antibody was added to each well, and mixed well. The cells were incubated at 4°C in the dark for 20 min. After washing once with flow buffer, 195 µL of Annexin-V-FITC binding solution was added, and the cells were gently mixed well. 5 µL of Annexin-V-FITC antibody was added. After further mixing, 10 µL of PI dye was added and mixed well. The cells were incubated at room temperature in the dark for 15 min. The cells were then subjected to flow cytometry.
as §3

SMILES: COc1cc(C(=O)NC2CCN(C)CC2)c(F)cc1Nc1ncc(C(F)(F)F)c(Oc2cccc3c2C(=O)N(C)C3)n1 [IN10018]
- cell status under a microscope (colon cancer CT26 cells): good
- cell status (cell death / cell viability) under a microscope [1]: better
- cell status (cell death / cell viability) under a microscope [2]: better
- cell status (cell death / cell viability) under a microscope [3]: better

SMILES: Cc1c(C=Cc2cc(CNC(C)(CO)C(=O)O)ccc2C(F)(F)F)cccc1-c1ccc2c(c1)OCCO2 (stereo not drawn) [MAX10181]
- Tumor volume on day 0 (breast cancer 4T1 cells; baseline at grouping (10th day after inoculation), mean ± standard error, 6 mice per group): 51.7 ± 13.9 mm^3
- TGI (breast cancer 4T1 cells; day 21 after administration, vs control group, DTX 10 mg/kg i.p. BIW, IN10018 25 mg/kg p.o. QD, MAX10181 120 mg/kg p.o. BID): -3.7%
- Tumor volume on day 21 (breast cancer 4T1 cells; day 21 after administration, DTX 10 mg/kg i.p. BIW, IN10018 25 mg/kg p.o. QD, MAX10181 120 mg/kg p.o. BID, mean ± standard error): 2205.7 ± 912.7 mm^3
- death of animals (breast cancer 4T1 cells; entire dosing cycle (21 days), 6 mice per group, deaths following diarrhea, MAX10181 120 mg/kg p.o. BID, DTX 10 mg/kg i.p. BIW): one

SMILES: CC(=O)O[C@H]1C(=O)[C@@]2(C)[C@H]([C@H](OC(=O)c3ccccc3)[C@]3(O)C[C@H](OC(=O)[C@H](O)[C@@H](NC(=O)c4ccccc4)c4ccccc4)C(C)=C1C3(C)C)[C@]1(OC(C)=O)CO[C@@H]1C[C@@H]2O [Paclitaxel]
- cell status (cell death) under a microscope [4]: obvious
